# Marks after values point to notes of the source that are not given here.
# Key:
# A549 lung cancer cells = assay: MTT cell growth and proliferation experiment, A549; type: cell-based; parameters: key to Inhibition Rate: (control OD570 − test OD570)/control OD570, as fraction; settings: A549, MTT time gradient, 10 ug/ml; for Inhibition Rate: fraction
# Procedure: (§1) 1.1 Reagents 12 retinoic acid derivatives with the final concentrations of 1 ug/ml, 5 ug/ml and 10 ug/ml are synthesized by the Pharmaceutical College of Anhui Medical University using DMSO and anhydrous ethanol, separately packaged for storage at −20° C. and kept out of the light when used, and the final concentration of DMSO is less than 0.1%. MTT is purchased from Sigma Corp. The Coulter DNA detection kit is presented by the Central Lab of Anhui Provincial Hospital. AFP and γ-GT are provided by the Clinical Lab of No. 105 Hospital of PLA. Apoptosis-Hoechst staining kit is purchased from Beyotime Company.
# (§2) 1.2 Cell Culture A549, and HpeG2 cells are stored by our lab. Cell growth condition: DMEM (from GIBICO Company) culture solution is added with 10% of calf serum (purchased from the Hangzhou Sijiqing Biological Engineering Material Co., Ltd.) to culture in a cell culture incubator (37° C., 5% CO2) with saturated humidity.
# (§3) 1.3 Cell Growth and Proliferation Experiments MTT process is used. Cells in the logarithmic phase are picked and seeded on a 96-hole culture board with a cell concentration of 5×10^7/L. Each hole of the board is 200 ul. The next day after the adherence, the original solution is discarded, and the culture solution is added. The cells are divided into 1 ug/ml retinoic acid derivative groups, 5 ug/ml retinoic acid derivative groups, 10 ug/ml retinoic acid derivative groups, blank control groups, cell control groups, solvent control groups (1‰ DMSO and anhydrous ethanol) (17 in total) according to the concentrations thereof, incubated for 3d, added with MTT (5 g/L) of 20 ul/hole for incubation at 37° C. for 4 h. The original solution is carefully discarded and dried, and DMSO of 20 ul/hole is added to dissolve crystals, followed by vibrating for 10 min and determining the OD value at 570 nm. Each concentration is corresponding to 5 holes, and each group calculates the average of 3 experiments to calculate the inhibition rate to the cell growth according to the optical density (OD) average of each hole in each group and the following equation: inhibition rate %=(control hole OD570−experimental hole OD570)/control hole OD5700*100%. The process above is repeated for three times. The second experiment takes the maximum concentration (10 […]) for culture respectively for 1, 2, 3 and 7 days and repeat for three times.
# liver cancer HepG2 cells = assay: MTT cell growth and proliferation experiment, HepG2; type: cell-based; parameters: key to Inhibition Rate: (control OD570 − test OD570)/control OD570, as fraction; settings: for Inhibition Rate: fraction
# Procedure: as §1, §2, §3
# A549 cells [1] = assay: Differentiation index: CEA secretory volume of A549 cells; type: cell-based; settings: A549 culture supernatant, 10 ug/ml, 3 d, DMSO
# Procedure: 1.6 Detection of Differentiation Index The cultured A549 cells are randomly divided into 6 10 μg/ml drug groups, cell control groups, solvent control groups (DMSO and ethanol) and 10 μg/ml fenretinide control groups (11 in total). The control groups and drug groups are cultured for 3 days to collect respective 3 tubes of cell culture solutions which are centrifugated at a speed of 4000 r/min for 5 min to take the supernatant and detect the CEA content of the kit by using enzyme kinetics and CEA detection.
# HepG2 cells [2] = assay: AFP secretory volume of HepG2 cells; type: cell-based; settings: for effects on AFP secretory volume (statistics, in words): HepG2, compared with the control groups, P less than 0.05; for AFP: HepG2 cells, DMSO
# HepG2 cells [3] = assay: γ-GT specific activity of HepG2 cells; type: cell-based; settings: DMSO
# A549 cells [4] = assay: Cell cycle and apoptosis by flow cytometry, A549; type: cell-based; settings: A549, 10 μg/ml, 3 days, PI flow cytometry
# Procedure: 1.4 Detection of Cell Cycle and Apoptosis by Flow Cytometry A549 cells in the logarithmic phase are collected, regulated with the concentrations thereof to 8×10^7/L, inoculated in a 6-hole board, cultured in an incubator (37° C. and 5% CO2). After the cells are adhered, the culture solution is discarded, and a culture solution having drugs with the corresponding concentrations is added and divided into 10 μg/ml drug groups, 10 μg/ml fenretinide groups, cell control groups, solvent control groups (1‰ DMSO and anhydrous ethanol) (11 in total). After 3 days, each group of cells is normally digested, collected, blown into single cell suspension, washed by cold PBS twice, and re-suspend by 10 μl PBS. Fixing and member breaking agents and a PI staining solution are added according to the Coulter DNA detection kit and reacted with one another at the room temperature and out of light for 30 min for machine detection. Each sample detects 10000 cells and repeats for three times, and the data are analyzed by Analysis software for the ratio during the G0-G1, S and G2-M periods and the ratio of apoptotic cells.
# HepG2 cells [5] = assay: Cell cycle and apoptosis by flow cytometry, HepG2; type: cell-based; settings: HepG2, flow cytometry
# NB4 cells = assay: Cell cycle analysis by flow cytometer, NB4; type: cell-based; parameters: S %: dose or concentration left out as unconfirmed; settings: 72 h
# Procedure: (§4) Retinoic acid derivatives and fenretinide are prepared as a storage solution of 10 mg/mL by anhydrous ethanol and stored at […] and kept out of light.
# (§5) NB4 cells and K562 cells are inoculated with an initial concentration of 2*10^5/ml in the RPMI1640 culture solution having 10% of calf serum (FBS), 100 u/ml of penicillin, 100 Lg/ml of streptomycin and 2 mmol/L of glutamine for suspension culture (37° C., 5% CO2). Change the solution every 2-3 days.
# (§6) For the cells above acted by the retinoic acid derivatives and fenretinide ([…]) for 72 h, about 10^6 of them are collected, washed by PBS twice, fixed by 70% of cold ethanol over 24 h, washed by PBS twice, added with 5 ug/ml of propidium iodide for staining and detected by a flow cytometer from which the data are analyzed and processed by the multi-cycle software.
# K562 cells = assay: Cell cycle analysis by flow cytometer, K562; type: cell-based; parameters: S %: dose or concentration left out as unconfirmed; settings: 72 h
# Procedure: as §4, §5, §6
# [6] = test system: human acute promyelocytic leukaemia; settings: cited from earlier work
# [7] = HepG2, MTT OD 570 nm, 1 ug/ml, 3 d, solvent not given
# [8] = HepG2, MTT OD 570 nm, 5 ug/ml, 3 d, solvent not given
# [9] = HepG2, MTT OD 570 nm, 10 ug/ml, 3 d, solvent not given
# [10] = HepG2, MTT time gradient, 10 ug/ml, 1 d
# [11] = HepG2, MTT time gradient, 10 ug/ml, 2 d
# [12] = HepG2, MTT time gradient, 10 ug/ml, 3 d
# [13] = HepG2, MTT time gradient, 10 ug/ml, 7 d
# [14] = HepG2, MTT, 1 ug/ml, 3 d, solvent not given
# [15] = HepG2, MTT, 5 ug/ml, 3 d, solvent not given
# [16] = HepG2, MTT, 10 ug/ml, 3 d, solvent not given
# [17] = HepG2, Table 5 repeat MTT, 10 ug/ml, 3 days, DMSO
smiles,measurement,setting,value
"CC1=C(/C=C/C(C)=C/C=C/C(C)=C/C(=O)Nc2ccc(OC(F)(F)F)cc2)C(C)(C)CCC1 [Example 6a-01, (4-trifluoromethoxyphenyl)-(all-trans)-3,7-dimethyl-9-(2,6,6-trimethyl-1-cyclohexen-1-yl)-2,4,6,8-nonatetraenoic acid amide]",OD Value (x ± s),A549 lung cancer cells; 1 d,0.646 ± 0.019
same,Inhibition Rate,A549 lung cancer cells; 1 d,0.296
same,OD Value (x ± s),A549 lung cancer cells; 2 d,0.909 ± 0.065
same,Inhibition Rate,A549 lung cancer cells; 2 d,0.378
same,OD Value (x ± s),A549 lung cancer cells; 3 d,0.567 ± 0.057
same,Inhibition Rate,A549 lung cancer cells; 3 d,0.389
same,OD Value (x ± s),A549 lung cancer cells; 7 d,1.243 ± 0.024
same,Inhibition Rate,A549 lung cancer cells; 7 d,0.401
same,OD Value (x ± s),liver cancer HepG2 cells; [7],0.97 ± 0.29
same,OD Value (x ± s),liver cancer HepG2 cells; [8],0.89 ± 0.14
same,OD Value (x ± s),liver cancer HepG2 cells; [9],0.89 ± 0.30
same,OD Value (x ± s),liver cancer HepG2 cells; [10],1.28 ± 0.07
same,Inhibition Rate,liver cancer HepG2 cells; [10],0.06
same,OD Value (x ± s),liver cancer HepG2 cells; [11],1.55 ± 0.11
same,Inhibition Rate,liver cancer HepG2 cells; [11],0.10
same,OD Value (x ± s),liver cancer HepG2 cells; [12],1.24 ± 0.18
same,Inhibition Rate,liver cancer HepG2 cells; [12],0.26
same,OD Value (x ± s),liver cancer HepG2 cells; [13],0.62 ± 0.13
same,Inhibition Rate,liver cancer HepG2 cells; [13],0.50
same,Inhibition Rate,liver cancer HepG2 cells; [14],0.42
same,Inhibition Rate,liver cancer HepG2 cells; [15],0.47
same,Inhibition Rate,liver cancer HepG2 cells; [16],0.47
same,OD Value (x ± s),liver cancer HepG2 cells; [17],1.163 ± 0.102
same,Inhibition Rate,liver cancer HepG2 cells; [17],0.463*
same,CEA,A549 cells [1],2.9 µg/L
same,"effects on AFP secretory volume (statistics, in words)",HepG2 cells [2],meaningful in statistics
same,AFP,HepG2 cells [2],13.6* ug/L
same,γ-GT,HepG2 cells [3],58.0 ± 1.5 U/L
same,Apoptosis Rate (%),A549 cells [4],30.5%
same,G0-G1 (%),A549 cells [4],40.1%
same,G2-M (%),A549 cells [4],2.34%
same,S %,A549 cells [4],27.9%
same,Apoptosis Rate (%),HepG2 cells [5],11.1%
same,G0-G1 (%),HepG2 cells [5],57.4%
same,G2-M (%),HepG2 cells [5],5.30%
same,S %,HepG2 cells [5],26.7%
same,G1 %,NB4 cells,38.24%
same,G2 %,NB4 cells,2.70%
same,S %,NB4 cells,59.06%
same,G1 %,K562 cells,34.2%
same,G2 %,K562 cells,9.4%
same,S %,K562 cells,56.4%
"CC1=C(/C=C/C(C)=C/C=C/C(C)=C/C(=O)Nc2ccc(C(F)(F)F)cc2)C(C)(C)CCC1 [Example 3a-01, (4-trifluoromethylphenyl)-(all-trans)-3,7-dimethyl-9-(2,6,6-trimethyl-1-cyclohexen-1-yl)-2,4,6,8-nonatetraenoic acid amide]",OD Value (x ± s),A549 lung cancer cells; 1 d,0.680 ± 0.055
same,Inhibition Rate,A549 lung cancer cells; 1 d,0.258
same,OD Value (x ± s),A549 lung cancer cells; 2 d,1.042 ± 0.046
same,Inhibition Rate,A549 lung cancer cells; 2 d,0.288
same,OD Value (x ± s),A549 lung cancer cells; 3 d,0.623 ± 0.006
same,Inhibition Rate,A549 lung cancer cells; 3 d,0.328
same,OD Value (x ± s),A549 lung cancer cells; 7 d,1.325 ± 0.028
same,Inhibition Rate,A549 lung cancer cells; 7 d,0.361
same,OD Value (x ± s),liver cancer HepG2 cells; [7],1.13 ± 0.16
same,OD Value (x ± s),liver cancer HepG2 cells; [8],1.13 ± 0.45
same,OD Value (x ± s),liver cancer HepG2 cells; [9],0.86 ± 0.13
same,OD Value (x ± s),liver cancer HepG2 cells; [10],1.52 ± 0.13
same,Inhibition Rate,liver cancer HepG2 cells; [10],0.12
same,OD Value (x ± s),liver cancer HepG2 cells; [11],0.71 ± 0.02
same,Inhibition Rate,liver cancer HepG2 cells; [11],0.42
same,OD Value (x ± s),liver cancer HepG2 cells; [12],0.77 ± 0.03
same,Inhibition Rate,liver cancer HepG2 cells; [12],0.54
same,OD Value (x ± s),liver cancer HepG2 cells; [13],0.30 ± 0.08
same,Inhibition Rate,liver cancer HepG2 cells; [13],0.77
same,Inhibition Rate,liver cancer HepG2 cells; [14],0.33
same,Inhibition Rate,liver cancer HepG2 cells; [15],0.33
same,Inhibition Rate,liver cancer HepG2 cells; [16],0.49
same,OD Value (x ± s),liver cancer HepG2 cells; [17],0.978 ± 0.072
same,Inhibition Rate,liver cancer HepG2 cells; [17],0.548*
same,CEA,A549 cells [1],2.9 µg/L
same,"effects on AFP secretory volume (statistics, in words)",HepG2 cells [2],meaningful in statistics
same,AFP,HepG2 cells [2],13.6* ug/L
same,γ-GT,HepG2 cells [3],52.3 ± 1.5 U/L
same,Apoptosis Rate (%),A549 cells [4],17.6%
same,G0-G1 (%),A549 cells [4],55.6%
same,G2-M (%),A549 cells [4],2.41%
same,S %,A549 cells [4],24.9%
same,Apoptosis Rate (%),HepG2 cells [5],16.5* %
same,G0-G1 (%),HepG2 cells [5],56.3%
same,G2-M (%),HepG2 cells [5],4.14%
same,S %,HepG2 cells [5],24.8%
"CC1=C(/C=C/C(C)=C/C=C/C(C)=C/C(=O)O)C(C)(C)CCC1 [ATRA, all-trans retinoic acid]",incidence rate of increased leukocyte count,"[6]; during the treatment of APL, reported abroad",about 30%
same,complete remission rate,"[6]; human acute promyelocytic leukaemia, 5-year clinic summary",86%
